Our source for the IC50 values is patent US9174942B2, “IDO inhibitors” (NewLink Genetics Corporation, priority 2008, dated 2015).

What is called IC50 is the concentration that inhibits the measured activity by half.

A value given as a limit tells only on which side of the number the result lay.

The target of the assay is T1, purified human IDO protein (Homo sapiens, UniProt P14902, E119G/P110S).
T1 construct: 6-Histidine tag (C); made in house; host or cells: E. coli M15(pREP4) transformed with pQE70-hIDO
T1 sequence (P14902 whole entry P110S/E119G): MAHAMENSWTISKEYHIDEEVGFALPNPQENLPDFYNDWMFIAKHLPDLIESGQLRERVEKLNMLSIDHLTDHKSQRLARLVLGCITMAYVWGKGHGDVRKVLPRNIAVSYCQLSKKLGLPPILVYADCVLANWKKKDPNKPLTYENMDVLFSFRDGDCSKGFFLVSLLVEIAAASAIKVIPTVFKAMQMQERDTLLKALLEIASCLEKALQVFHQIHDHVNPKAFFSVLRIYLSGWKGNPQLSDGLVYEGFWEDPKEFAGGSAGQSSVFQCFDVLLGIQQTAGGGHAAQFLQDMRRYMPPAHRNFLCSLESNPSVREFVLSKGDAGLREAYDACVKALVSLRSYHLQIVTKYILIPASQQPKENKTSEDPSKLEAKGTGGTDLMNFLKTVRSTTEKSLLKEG
As to the kind of experiment: Enzymatic IDO assay (kynurenine formation, absorbance at 480 nm). It counts as biochemical. The settings on record: recombinant human IDO, 200 μM L-tryptophan, pH 6.5; reported in ranges. Here is the method: The inhibitors were initially diluted in DMSO at 100 mM and were diluted in potassium phosphate 50 mM, added to the reaction mixture at final concentrations raging from 1 mM to 5 nM and preincubated with the enzyme for 5 min at 25° C. The reaction was started by addition of L-tryptophan to 200 μM and incubated 15 min at 37° C. The reaction was stopped by addition of 0.5 vol of 30% trichloroacetic acid and incubated 30 min at 60° C. to hydrolyze N-formylkynurenine to kynurenine. The reaction was centrifuged at 3400 g for 5 min to remove precipitated protein and the supernatant was reacted with 2% (w/v) of p-dimethylaminobenzaldehyde in acetic acid. The reaction was incubated 10 min at 25° C. and read at 480 nm in a spectrophotometer. […] Nonlinear regressions and determination of the IC50 values were performed using the GraphPad Prism 4 software.
`Oc1ccc(C(F)(F)F)cc1-c1c[nH]cn1` [Compound 156, 2-(1H-imidazol-4-yl)-4-(trifluoromethyl)phenol]: the IC50 was below 20 µM.

As for `c1ccc(-c2c[nH]cn2)c(OCC2CCNCC2)c1` [Compound 157, 4-((2-(1H-imidazol-4-yl)phenoxy)methyl)piperidine], the IC50 was in the range of 20 to 100 µM.

`Oc1ccc(CCOc2ccccc2-c2c[nH]cn2)cc1` [Compound 158, 4-(2-(2-(1H-imidazol-4-yl)phenoxy)ethyl)phenol]: the IC50 is below 20 µM.

Turning to `O=C1c2ccccc2CC1Oc1ccccc1-c1c[nH]cn1` (stereo not shown) [Compound 159, 2-(2-(1H-imidazol-4-yl)phenoxy)-2,3-dihydro-1H-inden-1-one], the IC50 lay in the range of 20 to 100 µM.

Take `N#CC1CCC(=CCOc2ccccc2-c2c[nH]cn2)CC1` (stereo not shown) [Compound 160, 4-(2-(2-(1H-imidazol-4-yl)phenoxy)ethylidene)cyclohexanecarbonitrile]: the IC50 is below 20 µM.

On to `CC(C)(CCOc1ccccc1-c1c[nH]cn1)CCN1CCOCC1` [Compound 161, 4-(5-(2-(1H-imidazol-4-yl)phenoxy)-3,3-dimethylpentyl) morpholine], for which the IC50 lay within 20 to 100 µM.

Consider `CC(C)(CCOc1ccccc1-c1c[nH]cn1)CCn1c(=O)c(F)cn([C@@H]2O[C@H](CO)[C@@H](O)[C@H]2O)c1=O` [Compound 162, 3-(5-(2-(1H-imidazol-4-yl)phenoxy)-3,3-dimethylpentyl)-1-((2R,3R,4S,5R)-3,4-dihydroxy-5-(hydroxymethyl)tetrahydrofuran-2-yl)-5-fluoropyrimidine-2,4(1H,3H)-dione], for which the IC50 is below 20 µM.

On to `CC(C)(CCOc1ccccc1-c1cnc[nH]1)CCn1ccnc1` [Compound 163, 5-(2-(5-(1H-imidazol-1-yl)-3,3-dimethylpentyloxy)phenyl)-1H-imidazole], for which the IC50 was in the range of 100 to 500 µM.

For `CC(C)(CCNc1ccncc1)CCOc1ccccc1-c1cnc[nH]1` [Compound 164, N-(5-(2-(1H-imidazol-5-yl)phenoxy)-3,3-dimethylpentyl) pyridin-4-amine], the IC50 is 20 to 100 µM.

With `CC(=O)Nc1ccccc1CCOc1ccccc1-c1c[nH]cn1` [Compound 165, N-(2-(2-(2-(1H-imidazol-4-yl)phenoxy)ethyl)phenyl) acetamide], the IC50 was 100 to 500 µM.

Turning to `CC(C)(CCNCc1ccccc1)CCOc1ccccc1-c1c[nH]cn1` [Compound 166, 5-(2-(1H-imidazol-4-yl)phenoxy)-N-benzyl-3,3-dimethylpentan-1-amine], the IC50 is below 20 µM.

Consider `CC(C)(CCO)CCOc1ccccc1-c1c[nH]cn1` [Compound 167, 5-(2-(1H-imidazol-4-yl)phenoxy)-3,3-dimethylpentan-1-ol], for which the IC50 lay in the range of 20 to 100 µM.

With `NC(=O)C1CCC(=CCOc2ccccc2-c2c[nH]cn2)CC1` (stereo not shown) [Compound 168, 4-(2-(2-(1H-imidazol-4-yl)phenoxy)ethylidene)cyclohexanecarboxamide], the IC50 was below 20 µM.
